Tested on: Human immunodeficiency virus 1
Assay: Inhibition of HIV1-induced cytopathogenicity in CEM/0 cells
Format: functional, organism-based
Conditions: Human immunodeficiency virus 1, CCRF-CEM
`O=c1ccn([C@H]2C=C[C@@H](CO)O2)c(=O)[nH]1` showed an EC50 of over 50 µM. Compound `O=c1ccn([C@H]2CC[C@@H](CO)O2)c(=O)[nH]1` has an EC50 of over 250 µM. Compound `CCOC(=O)[C@@H](C)NP(=O)(OC[C@@H]1C=C[C@H](n2ccc(=O)[nH]c2=O)O1)Oc1ccccc1` (some centres not stated) has an EC50 of over 50 µM. Compound `CCOC(=O)[C@@H](C)NP(=O)(OC[C@@H]1CC[C@H](n2ccc(=O)[nH]c2=O)O1)Oc1ccccc1` (some centres not stated) has an EC50 of 43.3 µM. Compound `C[C@@H](NP(=O)(OC[C@@H]1CC[C@H](n2ccc(=O)[nH]c2=O)O1)Oc1ccccc1)C(=O)OC(C)(C)C` (some centres not stated) has an EC50 of over 250 µM. Work on `C[C@@H](NP(=O)(OC[C@@H]1C=C[C@H](n2ccc(=O)[nH]c2=O)O1)Oc1ccccc1)C(=O)OC(C)(C)C` (some centres not stated) yielded an EC50 of over 250 µM. Compound `C[C@@H](NP(=O)(OC[C@@H]1CC[C@H](n2ccc(=O)[nH]c2=O)O1)Oc1cccc2ccccc12)C(=O)OCc1ccccc1` (some centres not stated) has an EC50 of 15 µM. Work on `C[C@@H](NP(=O)(OC[C@@H]1C=C[C@H](n2ccc(=O)[nH]c2=O)O1)Oc1cccc2ccccc12)C(=O)OCc1ccccc1` (some centres not stated) yielded an EC50 of 25 µM. `COC(=O)[C@@H](C)NP(=O)(OC[C@@H]1CC[C@H](n2ccc(=O)[nH]c2=O)O1)Oc1ccccc1` (some centres not stated) gave an EC50 of 36.7 µM. In the case of `COC(=O)[C@@H](C)NP(=O)(OC[C@@H]1C=C[C@H](n2ccc(=O)[nH]c2=O)O1)Oc1ccccc1` (some centres not stated), the EC50 is reported as over 50 µM.

Tested on: not listed separately
Assay: Cytotoxicity against CEM/0 cells
Format: cell-based, CCRF-CEM
Conditions: human
Compound `O=c1ccn([C@H]2C=C[C@@H](CO)O2)c(=O)[nH]1` has a CC50 of 207 µM. `O=c1ccn([C@H]2CC[C@@H](CO)O2)c(=O)[nH]1` gave a CC50 of over 250 µM. In the case of `Cc1cn([C@H]2C=C[C@@H](CO)O2)c(=O)[nH]c1=O` [STAVUDINE], the CC50 is reported as 174 µM. With `CCOC(=O)[C@@H](C)NP(=O)(OC[C@@H]1C=C[C@H](n2ccc(=O)[nH]c2=O)O1)Oc1ccccc1` (some centres not stated) the CC50 was 212 µM. With `CCOC(=O)[C@@H](C)NP(=O)(OC[C@@H]1CC[C@H](n2ccc(=O)[nH]c2=O)O1)Oc1ccccc1` (some centres not stated) the CC50 was over 250 µM. For `C[C@@H](NP(=O)(OC[C@@H]1CC[C@H](n2ccc(=O)[nH]c2=O)O1)Oc1ccccc1)C(=O)OC(C)(C)C` (some centres not stated), the CC50 was over 250 µM. With `C[C@@H](NP(=O)(OC[C@@H]1C=C[C@H](n2ccc(=O)[nH]c2=O)O1)Oc1ccccc1)C(=O)OC(C)(C)C` (some centres not stated) the CC50 was over 250 µM. With `C[C@@H](NP(=O)(OC[C@@H]1CC[C@H](n2ccc(=O)[nH]c2=O)O1)Oc1cccc2ccccc12)C(=O)OCc1ccccc1` (some centres not stated) the CC50 was 96.9 µM. With `C[C@@H](NP(=O)(OC[C@@H]1C=C[C@H](n2ccc(=O)[nH]c2=O)O1)Oc1cccc2ccccc12)C(=O)OCc1ccccc1` (some centres not stated) the CC50 was 100 µM. Work on `COC(=O)[C@@H](C)NP(=O)(OC[C@@H]1CC[C@H](n2ccc(=O)[nH]c2=O)O1)Oc1ccccc1` (some centres not stated) yielded a CC50 of 121 µM. With `COC(=O)[C@@H](C)NP(=O)(OC[C@@H]1C=C[C@H](n2ccc(=O)[nH]c2=O)O1)Oc1ccccc1` (some centres not stated) the CC50 was 96.6 µM.

Tested on: Human immunodeficiency virus 2
Assay: Inhibition of HIV2-induced cytopathogenicity in CEM/0 cells
Format: functional, organism-based
Conditions: Human immunodeficiency virus 2, CCRF-CEM
For `O=c1ccn([C@H]2C=C[C@@H](CO)O2)c(=O)[nH]1`, the EC50 was over 50 µM. For `O=c1ccn([C@H]2CC[C@@H](CO)O2)c(=O)[nH]1`, the EC50 was over 250 µM. `Cc1cn([C@H]2C=C[C@@H](CO)O2)c(=O)[nH]c1=O` [STAVUDINE] showed an EC50 of 0.77 µM. `CCOC(=O)[C@@H](C)NP(=O)(OC[C@@H]1C=C[C@H](n2ccc(=O)[nH]c2=O)O1)Oc1ccccc1` (some centres not stated) gave an EC50 of over 50 µM. Work on `CCOC(=O)[C@@H](C)NP(=O)(OC[C@@H]1CC[C@H](n2ccc(=O)[nH]c2=O)O1)Oc1ccccc1` (some centres not stated) yielded an EC50 of 93.3 µM. `C[C@@H](NP(=O)(OC[C@@H]1CC[C@H](n2ccc(=O)[nH]c2=O)O1)Oc1ccccc1)C(=O)OC(C)(C)C` (some centres not stated) gave an EC50 of over 250 µM. `C[C@@H](NP(=O)(OC[C@@H]1C=C[C@H](n2ccc(=O)[nH]c2=O)O1)Oc1ccccc1)C(=O)OC(C)(C)C` (some centres not stated) showed an EC50 of over 250 µM. `C[C@@H](NP(=O)(OC[C@@H]1CC[C@H](n2ccc(=O)[nH]c2=O)O1)Oc1cccc2ccccc12)C(=O)OCc1ccccc1` (some centres not stated) gave an EC50 of 20 µM. Work on `C[C@@H](NP(=O)(OC[C@@H]1C=C[C@H](n2ccc(=O)[nH]c2=O)O1)Oc1cccc2ccccc12)C(=O)OCc1ccccc1` (some centres not stated) yielded an EC50 of 25 µM. Compound `COC(=O)[C@@H](C)NP(=O)(OC[C@@H]1CC[C@H](n2ccc(=O)[nH]c2=O)O1)Oc1ccccc1` (some centres not stated) has an EC50 of at least 50 µM. Work on `COC(=O)[C@@H](C)NP(=O)(OC[C@@H]1C=C[C@H](n2ccc(=O)[nH]c2=O)O1)Oc1ccccc1` (some centres not stated) yielded an EC50 of over 10 µM.
